Oligonucleotides are written 5' to 3', each unit as a sugar letter and its base; * is a phosphorothioate linkage, no mark a phosphodiester; rarer units and linkages stand in square brackets, end groups in braces. Plain capitals give the bases only. d = 2'-deoxy (DNA); r = 2'-OH (RNA)
target: UBE2C; experiment: reporter assay of Huesken 2005; conditions: siRNA
Also: test concentration or dose not given here.

Substance | normalised inhibition (eCFP-eYFP dual reporter)
sense rArGrUrUrCrCrUrCrArCrGrCrCrCrUrGrCrUrAdTdT / antisense rUrArGrCrArGrGrGrCrGrUrGrArGrGrArArCrUdTdC | 84.4%
sense rArUrGrCrUrGrCrCrGrArGrCrUrCrUrGrGrArAdTdT / antisense rUrUrCrCrArGrArGrCrUrCrGrGrCrArGrCrArUdGdT | 84.5%
sense rArUrGrGrArGrCrArGrCrUrGrGrArArCrArGrUdTdT / antisense rArCrUrGrUrUrCrCrArGrCrUrGrCrUrCrCrArUdGdG | 84.5%
sense rArUrGrUrCrArGrGrArCrCrArUrUrCrUrGrCrUdTdT / antisense rArGrCrArGrArArUrGrGrUrCrCrUrGrArCrArUdCdA | 56.5%
sense rCrArCrCrCrCrArArCrGrUrGrGrArCrArCrCrCdTdT / antisense rGrGrGrUrGrUrCrCrArCrGrUrUrGrGrGrGrUrGdAdT | 11.6%
sense rCrArGrArGrCrCrUrUrCrUrArGrGrArGrArArCdTdT / antisense rGrUrUrCrUrCrCrUrArGrArArGrGrCrUrCrUrGdGdA | 75.5%
sense rCrArGrGrArCrCrArUrUrCrUrGrCrUrCrUrCrCdTdT / antisense rGrGrArGrArGrCrArGrArArUrGrGrUrCrCrUrGdAdC | 45.4%
sense rCrArGrUrArUrArUrGrArArGrArCrCrUrGrArGdTdT / antisense rCrUrCrArGrGrUrCrUrUrCrArUrArUrArCrUrGdTdT | 82.2%
sense rCrArUrCrCrArGrArGrCrCrUrUrCrUrArGrGrAdTdT / antisense rUrCrCrUrArGrArArGrGrCrUrCrUrGrGrArUrGdGdA | 78.6%
sense rCrArUrGrCrUrGrCrCrGrArGrCrUrCrUrGrGrAdTdT / antisense rUrCrCrArGrArGrCrUrCrGrGrCrArGrCrArUrGdTdG | 90.5%
sense rCrArUrUrCrUrGrCrUrCrUrCrCrArUrCrCrArGdTdT / antisense rCrUrGrGrArUrGrGrArGrArGrCrArGrArArUrGdGdT | 79.7%
sense rCrCrArCrArGrUrGrArArGrUrUrCrCrUrCrArCdTdT / antisense rGrUrGrArGrGrArArCrUrUrCrArCrUrGrUrGrGdGdC | 74.3%
sense rCrCrArUrCrCrArUrGrGrArGrCrArGrCrUrGrGdTdT / antisense rCrCrArGrCrUrGrCrUrCrCrArUrGrGrArUrGrGdTdC | 80.7%
sense rCrCrCrArGrUrGrGrCrUrArCrCrCrUrUrArCrAdTdT / antisense rUrGrUrArArGrGrGrUrArGrCrCrArCrUrGrGrGdGdA | 85.7%
sense rCrCrCrCrArGrUrGrGrCrUrArCrCrCrUrUrArCdTdT / antisense rGrUrArArGrGrGrUrArGrCrCrArCrUrGrGrGrGdAdA | 67.7%
sense rCrCrCrUrGrCrUrArUrCrArCrCrCrCrArArCrGdTdT / antisense rCrGrUrUrGrGrGrGrUrGrArUrArGrCrArGrGrGdCdG | 53.1%
sense rCrCrUrGrGrArCrArUrCrCrUrGrArArGrGrArAdTdT / antisense rUrUrCrCrUrUrCrArGrGrArUrGrUrCrCrArGrGdCdA | 74.2%
sense rCrCrUrGrUrArUrGrArUrGrUrCrArGrGrArCrCdTdT / antisense rGrGrUrCrCrUrGrArCrArUrCrArUrArCrArGrGdGdC | 42%
sense rCrGrCrUrArGrArGrUrUrCrCrCrCrArGrUrGrGdTdT / antisense rCrCrArCrUrGrGrGrGrArArCrUrCrUrArGrCrGdAdG | 86.9%
sense rCrUrArUrCrArCrCrCrCrArArCrGrUrGrGrArCdTdT / antisense rGrUrCrCrArCrGrUrUrGrGrGrGrUrGrArUrArGdCdA | 77.2%
sense rCrUrCrCrArUrCrCrArGrArGrCrCrUrUrCrUrAdTdT / antisense rUrArGrArArGrGrCrUrCrUrGrGrArUrGrGrArGdAdG | 81.9%
sense rCrUrGrArGrGrUrArUrArArGrCrUrCrUrCrGrCdTdT / antisense rGrCrGrArGrArGrCrUrUrArUrArCrCrUrCrArGdGdT | 75.8%
sense rCrUrUrCrUrArGrGrArGrArArCrCrCrArArCrAdTdT / antisense rUrGrUrUrGrGrGrUrUrCrUrCrCrUrArGrArArGdGdC | 86.1%
sense rGrArArCrArCrArCrArUrGrCrUrGrCrCrGrArGdTdT / antisense rCrUrCrGrGrCrArGrCrArUrGrUrGrUrGrUrUrCdAdA | 89.6%
sense rGrArArCrArGrUrArUrArUrGrArArGrArCrCrUdTdT / antisense rArGrGrUrCrUrUrCrArUrArUrArCrUrGrUrUrCdCdA | 86.9%
sense rGrArArGrGrArArArArGrUrGrGrUrCrUrGrCrCdTdT / antisense rGrGrCrArGrArCrCrArCrUrUrUrUrCrCrUrUrCdAdG | 63.3%

Substance | normalised inhibition (eCFP-eYFP dual reporter)
sense rGrArArGrUrUrCrCrUrCrArCrGrCrCrCrUrGrCdTdT / antisense rGrCrArGrGrGrCrGrUrGrArGrGrArArCrUrUrCdAdC | 40.9%
sense rGrArGrArArCrCrCrArArCrArUrUrGrArUrArGdTdT / antisense rCrUrArUrCrArArUrGrUrUrGrGrGrUrUrCrUrCdCdT | 66.3%
sense rGrArGrCrArGrCrUrGrGrArArCrArGrUrArUrAdTdT / antisense rUrArUrArCrUrGrUrUrCrCrArGrCrUrGrCrUrCdCdA | 85.2%
sense rGrArUrGrUrCrArGrGrArCrCrArUrUrCrUrGrCdTdT / antisense rGrCrArGrArArUrGrGrUrCrCrUrGrArCrArUrCdAdT | 48.8%
sense rGrCrCrCrArCrArGrUrGrArArGrUrUrCrCrUrCdTdT / antisense rGrArGrGrArArCrUrUrCrArCrUrGrUrGrGrGrCdGdC | 46.7%
sense rGrCrCrCrUrGrCrUrArUrCrArCrCrCrCrArArCdTdT / antisense rGrUrUrGrGrGrGrUrGrArUrArGrCrArGrGrGrCdGdT | 63.4%
sense rGrCrCrUrGrGrArCrArUrCrCrUrGrArArGrGrAdTdT / antisense rUrCrCrUrUrCrArGrGrArUrGrUrCrCrArGrGrCdAdT | 85.8%
sense rGrCrCrUrUrCrUrArGrGrArGrArArCrCrCrArAdTdT / antisense rUrUrGrGrGrUrUrCrUrCrCrUrArGrArArGrGrCdTdC | 92.8%
sense rGrCrGrCrCrCrArCrArGrUrGrArArGrUrUrCrCdTdT / antisense rGrGrArArCrUrUrCrArCrUrGrUrGrGrGrCrGrCdAdT | 70.9%
sense rGrCrUrArGrArGrUrUrCrCrCrCrArGrUrGrGrCdTdT / antisense rGrCrCrArCrUrGrGrGrGrArArCrUrCrUrArGrCdGdA | 69%
sense rGrCrUrArUrCrArCrCrCrCrArArCrGrUrGrGrAdTdT / antisense rUrCrCrArCrGrUrUrGrGrGrGrUrGrArUrArGrCdAdG | 89.4%
sense rGrCrUrGrGrArArCrArGrUrArUrArUrGrArArGdTdT / antisense rCrUrUrCrArUrArUrArCrUrGrUrUrCrCrArGrCdTdG | 90.4%
sense rGrGrUrArUrArArGrCrUrCrUrCrGrCrUrArGrAdTdT / antisense rUrCrUrArGrCrGrArGrArGrCrUrUrArUrArCrCdTdC | 91.3%
sense rGrGrUrCrUrGrCrCrCrUrGrUrArUrGrArUrGrUdTdT / antisense rArCrArUrCrArUrArCrArGrGrGrCrArGrArCrCdAdC | 55.5%
sense rGrUrGrGrCrUrArCrCrCrUrUrArCrArArUrGrCdTdT / antisense rGrCrArUrUrGrUrArArGrGrGrUrArGrCrCrArCdTdG | 87.8%
sense rUrArArGrCrUrCrUrCrGrCrUrArGrArGrUrUrCdTdT / antisense rGrArArCrUrCrUrArGrCrGrArGrArGrCrUrUrAdTdA | 60.2%
sense rUrArGrArGrUrUrCrCrCrCrArGrUrGrGrCrUrAdTdT / antisense rUrArGrCrCrArCrUrGrGrGrGrArArCrUrCrUrAdGdC | 67.2%
sense rUrArGrUrCrCrCrUrUrGrArArCrArCrArCrArUdTdT / antisense rArUrGrUrGrUrGrUrUrCrArArGrGrGrArCrUrAdTdC | 76.1%
sense rUrArUrGrArUrGrUrCrArGrGrArCrCrArUrUrCdTdT / antisense rGrArArUrGrGrUrCrCrUrGrArCrArUrCrArUrAdCdA | 32.1%
sense rUrCrCrUrGrArArGrGrArArArArGrUrGrGrUrCdTdT / antisense rGrArCrCrArCrUrUrUrUrCrCrUrUrCrArGrGrAdTdG | 71.8%
sense rUrCrUrArGrGrArGrArArCrCrCrArArCrArUrUdTdT / antisense rArArUrGrUrUrGrGrGrUrUrCrUrCrCrUrArGrAdAdG | 88.8%
sense rUrGrArArCrArCrArCrArUrGrCrUrGrCrCrGrAdTdT / antisense rUrCrGrGrCrArGrCrArUrGrUrGrUrGrUrUrCrAdAdG | 86.5%
sense rUrGrArGrGrUrArUrArArGrCrUrCrUrCrGrCrUdTdT / antisense rArGrCrGrArGrArGrCrUrUrArUrArCrCrUrCrAdGdG | 80.6%
sense rUrGrCrCrCrUrGrUrArUrGrArUrGrUrCrArGrGdTdT / antisense rCrCrUrGrArCrArUrCrArUrArCrArGrGrGrCrAdGdA | 50.8%
sense rUrGrCrCrUrGrGrArCrArUrCrCrUrGrArArGrGdTdT / antisense rCrCrUrUrCrArGrGrArUrGrUrCrCrArGrGrCrAdTdA | 49.2%
sense rUrGrGrCrUrArCrCrCrUrUrArCrArArUrGrCrGdTdT / antisense rCrGrCrArUrUrGrUrArArGrGrGrUrArGrCrCrAdCdT | 61.3%
